Experimental data from PubChem BioAssay AID2060336 (Molecular Pharmacology Branch, DTP, NCI, 2025).
pIC50: −log10 of the molar value.

Test system: 958767-090-R-J1-PDC spheroid growth
Experiment: Anticancer human tumor 958767-090-R-J1-PDC patient-derived head and neck squamous carcinoma cell line growth inhibition [IpAb]
Conditions: spheroids with HUVEC and MSC; for pIC50: curve of first compound; for viability, T/C: stronger effect = lower value
How it was run: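 Combinations with ipatasertib or abemaciclib were tested on tumour spheroids holding HUVEC (25%) and MSC (15%) alongside 60% malignant cells. Top concentration was at or near clinical Cmax (10 microM if undefined), descending in half-log steps.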

[1] = second compound 0.1 µM, first compound 0.00949 µM
[2] = second compound 0.1 µM, first compound 0.03 µM
[3] = second compound 0.1 µM, first compound 0.0949 µM
[4] = second compound 0.1 µM, first compound 0.3 µM
[5] = second compound 0.316 µM, first compound 0.00949 µM
[6] = second compound 0.316 µM, first compound 0.03 µM
[7] = second compound 0.316 µM, first compound 0.0949 µM
[8] = second compound 0.316 µM, first compound 0.3 µM
[9] = second compound 1 µM, first compound 0.00949 µM
[10] = second compound 1 µM, first compound 0.03 µM
[11] = second compound 1 µM, first compound 0.0949 µM
[12] = second compound 1 µM, first compound 0.3 µM
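Note: spheroids exposed to agents for 7 days.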
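Throughout, for viability, T/C: 100% = DMSO vehicle control wells.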

Cn1cnc2c(F)c(Nc3ccc(Br)cc3Cl)c(C(=O)NOCCO)cc21 + CC(C)NCC(C(=O)N1CCN(c2ncnc3c2C(C)CC3O)CC1)c1ccc(Cl)cc1
pIC50 (second compound 0.1 µM): 7.74 | pIC50 (second compound 0.316 µM): > 8.02 | pIC50 (second compound 1 µM): > 8.02 | pIC50 (second compound 3.16 µM): > 8.02 | pIC50 (second compound 10 µM): > 8.02 | viability, T/C [1]: 62% | viability, T/C [2]: 38.9% | viability, T/C [3]: 30.5% | viability, T/C [4]: 20.8% | viability, T/C (second compound 0.1 µM, first compound 0.949 µM): 17.7% | viability, T/C (second compound 0.1 µM, first compound 3 µM): 9.06% | viability, T/C [5]: 36% | viability, T/C [6]: 26.8% | viability, T/C [7]: 19.2% | viability, T/C [8]: 14.3% | viability, T/C (second compound 0.316 µM, first compound 0.949 µM): 9.47% | viability, T/C (second compound 0.316 µM, first compound 3 µM): 3.29% | viability, T/C [9]: 28.1% | viability, T/C [10]: 21.7% | viability, T/C [11]: 15.2% | viability, T/C [12]: 10.1% | viability, T/C (second compound 1 µM, first compound 0.949 µM): 4.39% | viability, T/C (second compound 1 µM, first compound 3 µM): 1.34% | viability, T/C (second compound 3.16 µM, first compound 0.00949 µM): 30.4% | viability, T/C (second compound 3.16 µM, first compound 0.03 µM): 18.6% | viability, T/C (second compound 3.16 µM, first compound 0.0949 µM): 10.1% | viability, T/C (second compound 3.16 µM, first compound 0.3 µM): 6.15% | viability, T/C (second compound 3.16 µM, first compound 0.949 µM): 1.7% | viability, T/C (second compound 3.16 µM, first compound 3 µM): 0.65% | viability, T/C (second compound 10 µM, first compound 0.00949 µM): 21.7% | viability, T/C (second compound 10 µM, first compound 0.03 µM): 9.62% | viability, T/C (second compound 10 µM, first compound 0.0949 µM): 4.16% | viability, T/C (second compound 10 µM, first compound 0.3 µM): 1.43% | viability, T/C (second compound 10 µM, first compound 0.949 µM): 0.55% | viability, T/C (second compound 10 µM, first compound 3 µM): 0.67%

CC(=O)c1c(C)c2cnc(Nc3ccc(N4CCNCC4)cn3)nc2n(C2CCCC2)c1=O + CCN1CCN(Cc2ccc(Nc3ncc(F)c(-c4cc(F)c5nc(C)n(C(C)C)c5c4)n3)nc2)CC1
pIC50 (second compound 0.01 µM): < 6.52 | pIC50 (second compound 0.0316 µM): < 6.52 | pIC50 (second compound 0.1 µM): 6.86 | pIC50 (second compound 0.316 µM): 6.58 | pIC50 (second compound 1 µM): < 6.52 | viability, T/C (second compound 0.01 µM, first compound 0.000949 µM): 80.7% | viability, T/C (second compound 0.01 µM, first compound 0.003 µM): 72.5% | viability, T/C (second compound 0.01 µM, first compound 0.00949 µM): 66.5% | viability, T/C (second compound 0.01 µM, first compound 0.03 µM): 64.3% | viability, T/C (second compound 0.01 µM, first compound 0.0949 µM): 59.6% | viability, T/C (second compound 0.01 µM, first compound 0.3 µM): 53.4% | viability, T/C (second compound 0.0316 µM, first compound 0.000949 µM): 73.8% | viability, T/C (second compound 0.0316 µM, first compound 0.003 µM): 75.5% | viability, T/C (second compound 0.0316 µM, first compound 0.00949 µM): 54.2% | viability, T/C (second compound 0.0316 µM, first compound 0.03 µM): 53.8% | viability, T/C (second compound 0.0316 µM, first compound 0.0949 µM): 56.5% | viability, T/C (second compound 0.0316 µM, first compound 0.3 µM): 49.7% | viability, T/C (second compound 0.1 µM, first compound 0.000949 µM): 61.5% | viability, T/C (second compound 0.1 µM, first compound 0.003 µM): 56.2% | viability, T/C [1]: 65.7% | viability, T/C [2]: 53.6% | viability, T/C [3]: 44.4% | viability, T/C [4]: 50.9% | viability, T/C (second compound 0.316 µM, first compound 0.000949 µM): 54.2% | viability, T/C (second compound 0.316 µM, first compound 0.003 µM): 50.7% | viability, T/C [5]: 57.2% | viability, T/C [6]: 52.9% | viability, T/C [7]: 51.1% | viability, T/C [8]: 47.9% | viability, T/C (second compound 1 µM, first compound 0.000949 µM): 65.2% | viability, T/C (second compound 1 µM, first compound 0.003 µM): 63.8% | viability, T/C [9]: 60.6% | viability, T/C [10]: 65.2% | viability, T/C [11]: 62.2% | viability, T/C [12]: 53.1%
